Data published in patent publication US7947854B2, “Bis-cationic compounds and use thereof” (The University of Sydney, priority 2003, dated 2011).
Read-outs that look alike come from different tables or passages of the source.

What was measured:
[1] = tested on: secreted phospholipase B (PLB activity); assay: Radiometric assay, secreted PLB activity; assay type: biochemical, Cryptococcus neoformans H99
Procedure: (§1) Fungal isolates and media. […] Isolate H99 was kindly supplied by Dr. Gary Cox (Duke University Medical Center, Durham, N.C., USA), and subcultured onto Sabouraud dextrose agar (SDA) at 30° C.
(§2) Preparation of supernatants containing secreted phospholipase activities. Isolate H99 was grown to confluence on SDA in 16 cm diameter Petri dishes for 72 h at 30° C. in air. Cells scraped from 10-20 dishes were washed sequentially with isotonic saline and imidazole buffer (10 mM imidazole, 2 mM CaCl2, 2 mM Mg Cl2, 56 mM D-Glucose, made up in isotonic saline, pH 5.5), resuspended in a volume of this buffer of about 10% of the cell volume, and incubated for 24 h at 37° C. The cell-free supernatant was separated by centrifugation as previously described and stored at −70° C.
Radiometric assay method for phospholipases. Enzyme activities were measured as described previously in a final volume of 125 μL at 37° C. For the determination of secreted PLB activity, carrier dipalmitoyl phosphatidylcholine (DPPC, final concentration 800 μM) and 1,2-di[1-^14C] palmitoyl phosphatidylcholine (20,000 dpm) were dried under nitrogen and suspended in 125 mM imidazole acetate buffer (assay buffer, pH 4.0) by sonication using a Branson 450 sonifier. The reaction time was 22 min, using 1 μg total protein and PLB activity was determined by the rate of decrease of the radiolabelled PC substrate, with appearance of the label in free fatty acid. This assay also simultaneously allows for the determination of phospholipase A, C and D activities. These activities were measured by the appearance of radiolabel from PC in Lyso PC, diacylglycerol and phosphatidic acid, respectively.
(§3) All reactions were terminated by adding 0.5 mL of chloroform:methanol (2:1 v/v). The reaction products were extracted by the method as disclosed in Bligh, E. C. and W. J. Dyer. 1959 ‘A rapid method of total lipid extraction and purification.’ Can. J. Biochem. Physiol. 37:911-917, separated by TLC and quantified as previously described. In the case of PLC activity, the TLC plates were developed in petroleum ether (BP 60-80° C.): diethyl ether: acetic acid (90:15:1, v/v/v) instead of chloroform:methanol:water (65:25:4, v/v/v).
(§4) Preparation of inhibitors and use in assays. The following compounds were tested (for structures, see FIG. 2): compound 1, 1,12-bis(tributylphosphonium)dodecane dibromide (Fluka AG, Buchs, Switzerland); compound 2, 1,10-bis(tributylammonium)-decane dibromide; compound 3, 1,12-bis(tributylammonium)do-decane dibromide (both synthesised in-house); compound 4, 1,10-bis(trimethylammonium)decane dibromide [“decamethonium”] (Sigma, St. Louis Mo., USA). All compounds were prepared as stock solutions of 700 μM in assay buffer containing 5 mM EDTA, which was then diluted serially with buffer to obtain solutions of 70, 7, 0.7 and 0.07 μM. In each assay, 45 μL of these solutions was used, and the final volume of 125 μL was made up of substrate, enzyme and buffer. The radiometric assay was carried out as above. Inhibition was calculated as the percent of substrates (DPPC or Lyso-PC) remaining in the case of PLB and LPL activities, or of DPPC produced, in the case of the LPTA activity. The amounts converted, or produced, in the inhibitor-free control were normalised to 100%, and the inhibition calculated against it. All assays were done in triplicate.
(§5) Under these conditions only PLB, LPL and LPTA activities (both secreted and cell-associated) were measured. Initially, compounds deemed to be potential inhibitors were assayed at 25 and 250 μM. Those showing some inhibition were then also assayed at 2.5 and 0.25 μM.

[2] = tested on: secreted phospholipase B (LPL/LPTA activities); assay: Radiometric assay, secreted LPL and LPTA activities (Lyso assay); assay type: biochemical, Cryptococcus neoformans H99
Procedure: as §1, §2
Secreted LPL and LPTA activities were measured simultaneously in a reaction mixture containing 1-[^14C]palmitoyl lyso-PC (25,000 dpm) and carrier lyso-PC (final concentration 200 μM) in assay buffer. The reaction time was […] with 1 μg of total protein and LPL activity was measured by the rate of loss of 1-[^14C]palmitoyl lyso-PC with release of radiolabelled fatty acids. LPTA activity was estimated from the rate of formation of radiolabelled PC.
as §3, §4, §5

[3] = tested on: Candida albicans ATCC 10231; assay: Antifungal susceptibility testing, microdilution MIC; assay type: cell-based
Procedure: (§6) Antifungal susceptibility testing. The antifingal activity of the compounds was measured by a standard microdilution method. […] The fungal strains tested included Cryptococcus neoformans H99, Cryptococcus neoformans ATCC 90112 and Candida albicans ATCC 10231. All tests were performed in duplicate.
(§7) A range of cationic compounds were assayed for antifungal activity in a standardised serial dilution sensitivity test against C. neoformans ([…]) and C. Albicans (ATCC 10231).

[4] = tested on: Cryptococcus neoformans ATCC 90112; assay: as above; assay type: cell-based
Procedure: as §6, §7

erythrocyte = assay type: cell-based; conditions: 37° C., 1 h
Procedure: Human blood was collected in 10 mL Vacutainer tubes containing potassium-EDTA as anticoagulant. The blood from each vacutainer was transferred to a 50 mL centrifuge tube and the cells washed three times with calcium- and magnesium-free phosphate buffered saline (PBS) (Gibco) by centrifugation at 2000×g for 15 min. The third supernatant was clear and colourless. Cells were stored in PBS for up to two weeks. The cell suspension in PBS (0.5 mL) was mixed with a stock solution of test substance (0.5 mL) at the appropriate concentration (final erythrocyte concentration of approx. 0.5×10^9 per mL). The mixtures were incubated at 37° C. for 1 h with gentle shaking, then centrifuged at 2000×g for 10 min. The supernatant was diluted 10-fold with PBS and the optical density measured at 540 nm. The values for 0% and 100% lysis were determined by incubating cells with PBS or 0.1% Triton X-100 (in water), respectively. Assays were carried out in triplicate.

[5] = Table 7, read-out: MIC (μM) C. alb. (10231)
[6] = Table 7, read-out: MIC (μM) Crypto. (ATCC 90112)
[7] = Candida albicans, ATCC10231, Table 7, read-out: MIC (μM) C. alb. (10231)
[8] = Cryptococcus neoformans, ATCC90112, Table 7, read-out: MIC (μM) Crypto. (ATCC 90112)

| Compound | PLB assay (% inhibition) ([1]; 25 μM) | PLB assay (% inhibition) ([1]; 250 μM) | Lyso assay (% inhibition) LPL ([2]; 25 μM) | Lyso assay (% inhibition) LPTA ([2]; 25 μM) | Lyso assay (% inhibition) LPL ([2]; 250 μM) | Lyso assay (% inhibition) LPTA ([2]; 250 μM) | PLB assay (% inhibition) ([1]; 0.25 μM) | PLB assay (% inhibition) ([1]; 2.5 μM) | Lyso assay (% inhibition) LPL ([2]; 0.25 μM) | Lyso assay (% inhibition) LPTA ([2]; 0.25 μM) | Lyso assay (% inhibition) LPL ([2]; 2.5 μM) | Lyso assay (% inhibition) LPTA ([2]; 2.5 μM) | MIC [3, 7] | MIC [4, 8] | other results |
| --- | --- | --- | --- | --- | --- | --- | --- | --- | --- | --- | --- | --- | --- | --- | --- |
| CC(C)C[N+](CCCCCCCCCCCC[N+](CC(C)C)(CC(C)C)CC(C)C)(CC(C)C)CC(C)C.[Br-].[Br-] [1,12-Bis-(triisobutylammonium)dodecane dibromide] | 250 μM = 0% 25 μM = 0% 2.5 μM = n.d. 0.25 μM = n.d. | 250 μM = 0% 25 μM = 0% 2.5 μM = n.d. 0.25 μM = n.d. | 250 μM = 0% 25 μM = 0% 2.5 μM = n.d. 0.25 μM = n.d. | 4% | 250 μM = 0% 25 μM = 0% 2.5 μM = n.d. 0.25 μM = n.d. | 5% | – | – | – | – | – | – | – | – | MIC (μM) C. alb. (10231) ([3]; Table 7): ≧350 μM; MIC (μM) Crypto. (ATCC 90112) ([4]; Table 7): ≧350 μM |
| CCCCC[N+](CCCCC)(CCCCC)CCCCCCCCCCCC[N+](CCCCC)(CCCCC)CCCCC.[Br-].[Br-] [1,12-Bis-(tripentylammonium)dodecane dibromide] | 73% | 63% | 250 μM = 10% 25 μM = 10% 2.5 μM = n.d. 0.25 μM = n.d. | 0% | 250 μM = 10% 25 μM = 10% 2.5 μM = n.d. 0.25 μM = n.d. | 2.4% | 0% | 12% | – | – | – | – | – | – | MIC [3, 5]: 5.5 µM; MIC [4, 6]: 5.5 µM |
| CC(C)CC[N+](CCCCCCCCCCCC[N+](CCC(C)C)(CCC(C)C)CCC(C)C)(CCC(C)C)CCC(C)C.[Cl-].[Cl-] [1,12-Bis-(triisopentylammonium)dodecane dichloride] | 68% | 63% | 250 μM = 11% 25 μM = 11% 2.5 μM = n.d. 0.25 μM = n.d. | 0% | 250 μM = 11% 25 μM = 11% 2.5 μM = n.d. 0.25 μM = n.d. | 6% | 0% | 9% | – | – | – | – | – | – | PLB assay (% inhibition) ([1]; 6.7 μM): 38%; PLB assay (% inhibition) ([1]; 12.5 μM): 56%; MIC [3, 5]: 2.2 µM; MIC [4, 6]: 4.4 µM |
| C(CCCCCC[N+]12CCC(CC1)CC2)CCCCC[N+]12CCC(CC1)CC2 [1,12-Bis-(quinuclidinium)dodecane dibromide] | 0% | 5% | 250 μM = 0% 25 μM = 0% 2.5 μM = 0% 0.25 μM = 0% | 250 μM = 0% 25 μM = 0% 2.5 μM = 0% 0.25 μM = 0% | 250 μM = 0% 25 μM = 0% 2.5 μM = 0% 0.25 μM = 0% | 250 μM = 0% 25 μM = 0% 2.5 μM = 0% 0.25 μM = 0% | 0% | 0% | 250 μM = 0% 25 μM = 0% 2.5 μM = 0% 0.25 μM = 0% | 250 μM = 0% 25 μM = 0% 2.5 μM = 0% 0.25 μM = 0% | 250 μM = 0% 25 μM = 0% 2.5 μM = 0% 0.25 μM = 0% | 250 μM = 0% 25 μM = 0% 2.5 μM = 0% 0.25 μM = 0% | ≥ 350 µM | 350 µM | – |
| CCC[N+](CCC)(CCC)CCCCCCCCCCCC[N+](CCC)(CCC)CCC [1,12-Bis-(tripropylammonium)dodecane dibromide] | 71% | 80% | 5% | 20% | 8% | 10% | 5% | 6% | 0% | 0% | 0% | 0% | 10 µM | 5.5 µM | PLB assay (% inhibition) ([1]; 6.7 μM): 42%; PLB assay (% inhibition) ([1]; 12.5 μM): 68% |
| C[N+]1(CCCCCCCCCCCC[N+]2(C)CCCC2)CCCC1 [C12-bis-N-methyl-pyro. dibromide, 1,12-Bis-(1-methylpyrrolidinium)dodecane dibromide] | 0% | 9% | 250 μM = 0% 25 μM = 0% 2.5 μM = n.d. 0.25 μM = n.d. | 250 μM = 0% 25 μM = 0% 2.5 μM = n.d. 0.25 μM = n.d. | 250 μM = 0% 25 μM = 0% 2.5 μM = n.d. 0.25 μM = n.d. | 250 μM = 0% 25 μM = 0% 2.5 μM = n.d. 0.25 μM = n.d. | – | – | – | – | – | – | – | – | MIC ([3]; Candida albicans, ATCC10231, read-out: MIC (μM) C. alb. (10231)): 175 µM; MIC ([4]; Cryptococcus neoformans, ATCC90112, read-out: MIC (μM) Crypto. (ATCC 90112)): 175 µM |
| CCCCCCCCCCCCCCCC[P+](CCCC)(CCCC)CCCC | 37% | 92% | 15% | 5% | 98% | 95% | 0% | 15% | 0% | 0% | 0% | 0% | 2.2 µM | ≤ 0.6 µM | Haemolytic assay (%) (erythrocyte; 3.5 μM): 2.5%; Haemolytic assay (%) (erythrocyte; 35 μM): 4%; Haemolytic assay (%) (erythrocyte; 88 μM): 7%; Haemolytic assay (%) (erythrocyte; 175 μM): 32%; Haemolytic assay (%) (erythrocyte; 350 μM): 100% |
| CCCC[N+]1(CCCCCCCCCCCC[N+]2(CCCC)CCCC2)CCCC1 [C12-bis-N-butyl-pyro. dibromide, 1,12-Bis-(N-butylpyrrolidinium)dodecane dibromide] | – | – | – | – | – | – | – | – | – | – | – | – | 88 µM | 88 µM | Haemolytic assay (%) (erythrocyte; 3.5 μM): 350 μM = 0% 175 μM = 0% 88 μM = 0% 35 μM = 0% 3.5 μM = 0%; Haemolytic assay (%) (erythrocyte; 35 μM): 350 μM = 0% 175 μM = 0% 88 μM = 0% 35 μM = 0% 3.5 μM = 0%; Haemolytic assay (%) (erythrocyte; 88 μM): 350 μM = 0% 175 μM = 0% 88 μM = 0% 35 μM = 0% 3.5 μM = 0%; Haemolytic assay (%) (erythrocyte; 175 μM): 350 μM = 0% 175 μM = 0% 88 μM = 0% 35 μM = 0% 3.5 μM = 0%; Haemolytic assay (%) (erythrocyte; 350 μM): 350 μM = 0% 175 μM = 0% 88 μM = 0% 35 μM = 0% 3.5 μM = 0% |
